Assay results published in patent US11643439B2, “Multi-target compound with anticoagulation and antiplatelet activity, preparation method therefor, and use thereof” (SHAANXI MICOT TECHNOLOGY LIMITED COMPANY, priority 2015, dated 2023).

Experiments:
[1] = test system: platelet aggregation; experiment: Platelet aggregation in rabbits, intravenous maintenance administration; assay type: in vivo, rabbit
Description: (§1) 2. Grouping and administration: 10 rabbits were randomly divided into 3 groups, 2 to 3 rabbits per group. 1) Sham operation group (NS): Intravenous injection of the same volume of physiological saline, with the same operation method as above; 2) polypeptide 2 administration group: 8.0 mg/kg+20.0 mg/kg/h; 3) positive control enoxaparin group: 50 U/kg+150 U/kg/h. According to the body weight in kilograms of the rabbits, the first dose of the drug to be tested was dissolved in 2 mL of physiological saline for single bolus injection. The maintaining dose was dissolved in 9 ml of physiological saline, and placed in a double-channel micro-injection pump, which was dripped off within 90 minutes at a dripping speed of […]. The sham operation group was administered with the same volume of physiological saline.
3.1 Surgery preparation of rabbits: Rabbits were sent to the laboratory for accommodation for one day, and then screened at first. Blood samples were taken from arteries within ears, which were subjected to blood routine analysis and APTT assay, and the rabbits with normal blood hemateikon and APTT between 16s to 28s were selected for experiments. The rabbits to be tested were fasted with free access to water for the night before the experiment. The rabbits were anesthetized with intravenous injection of 3% sodium pentobarbital solution at 1 ml/kg, fixed in the supine position, and then, the common carotid artery at one side, external jugular vein, femoral artery at one side, femoral vein, and forelimb vein at one side were isolated. The forelimb vein was subjected to intubation for administration; the left femoral vein was subjected to intubation for blood collection to determine the platelet aggregation rate; the femoral artery was used for the establishment of an arterial thrombosis model; the common carotid artery and external jugular vein were used for the establishment of an arterial and venous bypass thrombosis model.
4.1 Platelet aggregation rate: At points of 0 min before administration; 30 min. 60 min, 90 min for administration; 60 min, 120 min, 180 min after administration was terminated, 2.7 ml blood samples were taken from the femoral vein, rapidly injected into a centrifuge tube containing 0.3 ml of 3.8% sodium citrate solution, and fully mixed well. The resulted blood samples were centrifuged at 810 rpm (100 g) for 8 min to obtain PRP, and was centrifuged at 3500 rpm (1863 g) for 8 min to obtain PPP which was used to determine platelet aggregation.
Blood samples were taken before administration (0 min), 5 min and 15 min after administration, respectively, to determine the platelet aggregation rate which was used to calculate the inhibitory rate of platelet aggregation with a calculation equation as follows: […]

[2] = test system: blood coagulation function; experiment: APTT in rabbits, intravenous maintenance administration; assay type: in vivo, rabbit
Description: as §1
(§2) 4.2 Determination of blood coagulation function: Blood samples were taken and the blood function (PT, APTT) was determined at 0 min before administration, at points of 30 min, 60 min, 90 min after administration, and at points of 60 min, 120 min and 180 min after termination of administration, using a platelet-aggregation coagulation factor analyzer. Blood samples were centrifuged at 3510 rpm for 8 min to obtain platelet poor plasma (PPP). Reagent reconstruction and preservation were performed according to the operation requirements of the kit. Immediately after each blood sample was placed into a test cup and then added with PT, TT and APTT reagents, the test was started. After the test was completed, results were recorded.

[3] = test system: blood coagulation function; experiment: TT in rabbits, intravenous maintenance administration; assay type: in vivo, rabbit
Description: as §1, §2

[4] = test system: experimental cerebral infarction; experiment: Progressive ischemic stroke (MCAO suture method) in rats; assay type: in vivo, rat; conditions: for Cerebral index / Cerebral infarct volume ratio: 24 hours after the surgery
Description: 3.2 Grouping and administration: At 15 min after the mold was established, administration was started by jugular vein intubation, with the first dose and the maintenance dose for 60 min, […], while the model group was administered with physiological saline.
3.3 Experimental operation: Suture method (common carotid artery insertion method): the skin on the neck was cut open from a median incision thereon, and the common, external and internal carotid arteries were isolated therefrom. The common carotid artery was ligated at the heart-proximal end and the external carotid artery was ligated at the distal end. The distal end of the internal carotid artery was temporarily occluded with a small vascular clamp, and at the bifurcation of the common, external and internal carotid arteries, a thread for ligature was reserved. A small opening was cut with an eye scissor on the common carotid artery which was close to the internal carotid artery, to allow a certain degree of bending of the MCAO thread, which inserted into the internal carotid artery along the common carotid artery. During the thread insertion, the thread bended towards the direction of the operator, which was slowly pushed forward about 18 mm (from the bifurcation of the arteries), and terminated when a resistance was felt. The reserved thread was ligated at the bifurcation to fix the thread. At 15 min after the mold was established, the first dose was administered followed by maintenance dose for 60 min, and after the administration was finished, the wound in the neck was sutured in a conventional manner.
4.1 Neurobehavioral scores: Rats in both the groups were evaluated in terms of their neurobehavioral scores at 4, 8, and 24 hours after the surgery, with a Longa five-point quartering method as the standard: 0 point: no neurological defect; 1 point: adduction and failure to full extension of forelimbs on contralateral side when tail lifting; 2 points: rotation to the contralateral side; 3 points: toppling and falling to the contralateral side when walking; 4 points: failure to walk or coma. Cases with 1 to 4 points were classified as valid models.
4.2 observing infarct lesions and infarct volume by TTC staining: At 24 hours after the surgery, the animals were sacrificed and the brain was taken for TTC staining. The infarct volume was calculated by using a mapping software.
4.3 Cerebral index, cerebral water content: The rats in each group were rapidly decapitated 24 hours after the surgery and model establishment, and the whole brain was rapidly peeled off, which was then weighed for wet weight and used to calculate the brain index: Brain index=Brain wet weight/Body weight*100%

[5] = iv 8.0 + 20.0 (mg/kg+mg/kg/h), Before administration
[6] = iv 8.0 + 20.0 (mg/kg+mg/kg/h), Termination 120 min
[7] = iv 8.0 + 20.0 (mg/kg+mg/kg/h), Termination 180 min
[8] = iv 0.5 + 1.25 (mg/kg + mg/kg/h)
[9] = iv 50 U + 150 U, Administration 30 min
[10] = iv 50 U + 150 U, Administration 60 min
[11] = iv 50 U + 150 U, Administration 90 min
[12] = iv 50 U + 150 U, Before administration
[13] = iv 50 U + 150 U, Termination 60 min
[14] = iv 50 U + 150 U, Termination 120 min
[15] = iv 50 U + 150 U, Termination 180 min

In the case of “D-Phe Pro Arg Pro Gly Gly Gly Gly Asn Gly Asp Phe Glu Glu Ile Pro Glu Glu Tyr Leu Glu Ala Ala Ala Lys Cys Har Gly Asp Trp Pro Cys [Polypeptide 2]”, the “inhibitory rate of platelet aggregation” value ([1]; iv 8.0 + 20.0 (mg/kg + mg/kg/h), 60 min after termination) is reported as 14.1 ± 3.5%, the “inhibitory rate of platelet aggregation” value ([1]; iv 8.0 + 20.0 (mg/kg + mg/kg/h), 120 min after termination) is reported as 7.5 ± 1.8% and the “inhibitory rate of platelet aggregation” value ([1]; iv 8.0 + 20.0 (mg/kg + mg/kg/h), 180 min after termination) is reported as 47.5 ± 2.5%. The “inhibitory rate of platelet aggregation” value ([1]; iv 8.0 + 20.0 (mg/kg + mg/kg/h), Administration for 30 min) was 61.0 ± 14.1%, the “inhibitory rate of platelet aggregation” value ([1]; iv 8.0 + 20.0 (mg/kg + mg/kg/h), Administration for 60 min) was 72.1 ± 9.6% and the “inhibitory rate of platelet aggregation” value ([1]; iv 8.0 + 20.0 (mg/kg + mg/kg/h), Administration for 90 min) was 55.8 ± 7.7%. It also gave an APTT ([2]; iv 8.0 + 20.0 (mg/kg+mg/kg/h), Administration 30 min) of 38.0 ± 2.3 S, an APTT ([2]; iv 8.0 + 20.0 (mg/kg+mg/kg/h), Administration 60 min) of 32.5 ± 1.0 S and an APTT ([2]; iv 8.0 + 20.0 (mg/kg+mg/kg/h), Administration 90 min) of 34.1 ± 3.7 S. It also gave an APTT [2, 5] of 22.7 ± 1.7 S, an APTT ([2]; iv 8.0 + 20.0 (mg/kg+mg/kg/h), Termination 60 min) of 35.7 ± 14.0 S and an APTT [2, 6] of 33.2 ± 2.7 S. For the same substance, the APTT [2, 7] was 23.3 ± 1.6 S, the TT [3, 5] was 26.8 ± 15.5 S and the TT [3, 6] was 150.6 ± 3.5 S. The TT [3, 7] was 28.2 ± 1.9 S, the “neurological behaviors (neurobehavioral score, Longa)” value (“neurological behaviors” for short) ([4]; iv 0.5 + 1.25 (mg/kg + mg/kg/h), 4 h after surgery) was 1.00 ± 0.58 and the “neurological behaviors” value ([4]; iv 0.5 + 1.25 (mg/kg + mg/kg/h), 8 h after surgery) was 1.00 ± 0.58. The “neurological behaviors” value ([4]; iv 0.5 + 1.25 (mg/kg + mg/kg/h), 24 h after surgery) was 1.00 ± 0.58, the Cerebral index [4, 8] was 0.6648 ± 0.0374 % and the “Cerebral infarct volume ratio” value [4, 8] was 11.12 ± 6.56 %. The “Cerebral infarct volume ratio” value ([4]; iv 0.5 + 1.25 (mg/kg + mg/kg/h), listed as polypeptide 2) was 11.12±6.56%, the “neurological behaviors” value ([4]; iv 1.0 + 2.5 (mg/kg + mg/kg/h), 4 h after surgery) was 0.86 ± 1.07 and the “neurological behaviors” value ([4]; iv 1.0 + 2.5 (mg/kg + mg/kg/h), 8 h after surgery) was 0.86 ± 0.90. The “neurological behaviors” value ([4]; iv 1.0 + 2.5 (mg/kg + mg/kg/h), 24 h after surgery) was 1.14 ± 0.69, the Cerebral index ([4]; iv 1.0 + 2.5 (mg/kg + mg/kg/h)) was 0.6830 ± 0.0322% and the “Cerebral infarct volume ratio” value ([4]; iv 1.0 + 2.5 (mg/kg + mg/kg/h)) was 8.01 ± 6.66 %. For the same substance, the “Cerebral infarct volume ratio” value ([4]; iv 1.0 + 2.5 (mg/kg + mg/kg/h), listed as polypeptide 2) was 8.01±6.66%.
With Enoxaparin the “inhibitory rate of platelet aggregation” value ([1]; iv 50 U + 150 U, 60 min after termination) was 0.00%, the “inhibitory rate of platelet aggregation” value ([1]; iv 50 U + 150 U, 120 min after termination) was 41.9% and the “inhibitory rate of platelet aggregation” value ([1]; iv 50 U + 150 U, Administration for 30 min) was 26.7%. For the same substance, the “inhibitory rate of platelet aggregation” value ([1]; iv 50 U + 150 U, Administration for 60 min) was 0.00%, the “inhibitory rate of platelet aggregation” value ([1]; iv 50 U + 150 U, Administration for 90 min) was 35.27% and the APTT [2, 9] was 32.4 S. For the same substance, the APTT [2, 10] was 36.2 S, the APTT [2, 11] was 38.3 S and the APTT [2, 12] was 25.7 S. The APTT [2, 13] was 30.5 S, the APTT [2, 14] was 62.1 S and the APTT [2, 15] was 41.6 S. The TT [3, 9] was greater than 180 s, the TT [3, 10] was greater than 180 s and the TT [3, 11] was 18.9 S. For the same substance, the TT [3, 12] was 20.5 S, the TT [3, 13] was 21.0 S and the TT [3, 14] was 29.0 S. The TT [3, 15] was 24.0 S, the “neurological behaviors” value ([4]; iv 90 U/kg + 120 U/kg/h, 4 h after surgery) was 0.63 ± 0.74 and the “neurological behaviors” value ([4]; iv 90 U/kg + 120 U/kg/h, 8 h after surgery) was 0.88 ± 0.64. For the same substance, the “neurological behaviors” value ([4]; iv 90 U/kg + 120 U/kg/h, 24 h after surgery) was 1.38 ± 0.74, the Cerebral index ([4]; iv 90 U/kg + 120 U/kg/h) was 0.6819 ± 0.0356% and the “Cerebral infarct volume ratio” value ([4]; iv 90 U/kg + 120 U/kg/h) was 10.22 ± 5.38 %.
